# Measurements from patent publication US20240270762A1, “PENICILLIN-BINDING PROTEIN INHIBITORS” (priority 2021, published 2024).
# Legend:
# E. coli AG100A = assay: Broth microdilution MIC in CAMHB; assay type: cell-based; conditions: Escherichia coli, read-out: MIC E. coli AG100A
# [1] = molecular target: T1, PBP3 from Escherichia coli (K-12) (Escherichia coli, UniProt P0AD68); assay: Bocillin-FL fluorescence polarization competition binding, E. coli PBP3
# T1 construct: made in house
# How it was run: (§1)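 Purified PBP was preincubated with inhibitor (E. coli PBP3 1.5 μM, 30 min; P. aeruginosa PBP3 0.75 μM, A. baumannii PBP3 0.2 μM and PBP1a 1 μM, 15 min), then Bocillin-FL (0.1 μM; 0.05 μM for PBP1a) added and FP read up to 60 min. EC50 = 50% loss of bound probe.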
# N. gonorrhoeae WHO L = assay: Liquid broth MIC in Fastidious broth; conditions: Neisseria gonorrhoeae, read-out: Minimum Inhibitory Concentration (MIC), N. gonorrhoeae WHO L
# N. gonorrhoeae WHO G = assay: Liquid broth MIC in Fastidious broth; conditions: Neisseria gonorrhoeae, read-out: Minimum Inhibitory Concentration (MIC), N. gonorrhoeae WHO G
# N. gonorrhoeae WHO Q = assay: Liquid broth MIC in Fastidious broth; conditions: Neisseria gonorrhoeae, read-out: Minimum Inhibitory Concentration (MIC), N. gonorrhoeae WHO Q
# [2] = test system: N. gonorrhoeae ATCC 49226; assay: Liquid broth MIC in Fastidious broth; conditions: Neisseria gonorrhoeae, ATCC49226, read-out: Minimum Inhibitory Concentration (MIC), N. gonorrhoeae ATCC 49226
# Description: Additional antibacterial testing of the series was performed in 8 reference strains of N. gonorrhoeae (ATCC 49226, FA1090, MS 11, WHO G, WHO L, WHO M, WHO K, WHO X, WHO Z, WHO Q, CDC-0197). ATCC 49226, FA1090, MS11, WHO G, WHO L, and WHO M produce wild type or wild-type like PBP2. WHO K, WHO X, WHO Z, WHO Q, and CDC-0197 produce mosaic PBP2. Liquid broth-based assays were used for antibacterial testing of PBP inhibitors in Neisseria gonorrhoeae. Briefly, cryo-preserved bacterial cultures of clinical strains were streaked for isolation on Chocolate Agar (72 g/L (2×) GC Agar Base (BD #228950) and 2% (2×) Hemoglobin was autoclaved at 121° C. for 20 minutes to sterilize. Once cooled to ˜50° C. the 2×GC Agar Base and 2× Hemoglobin solutions are combined and 1% IsoVitaleX Enrichment (BD #211876) was added to the solution). Strains were incubated at 36° C. and 5% CO2 to allow growth of colonies, 24 hours before inoculum preparation. 2-fold serial dilutions of test compounds were conducted in a 96 well plate with a final volume of 75 μL per well at 2-fold the final desired concentration in Fastidious broth (Remel #R07664). For preparation of assay inoculum, a direct suspension was prepared by aseptically swabbing 10-15 colonies from agar plates into culture tubes containing 2 mL of fresh sterile saline. After the dilution plates were set up, direct suspensions were then diluted in a cuvette containing sterile saline and the optical density was measured at 600 nm. Inocula were diluted such that 75 μL of this culture in Fastidious broth results in a starting bacterial concentration of 5×10^5 CFU/mL when added to the dilution plates. The plates were incubated for ˜24 hours at 36° C. and 5% CO2.
# N. gonorrhoeae CDC-0197 = assay: Liquid broth MIC in Fastidious broth; conditions: Neisseria gonorrhoeae, CDC0197, read-out: Minimum Inhibitory Concentration (MIC), N. gonorrhoeae CDC-0197
# [3] = molecular target: T2, PBP3 from Pseudomonas aeruginosa (PAO1) (Pseudomonas aeruginosa, UniProt G3XD46); assay: Bocillin-FL fluorescence polarization competition binding, P. aeruginosa PBP3; conditions: Binding affinity to P. aeruginosa PBP3; fluorescence polarization competition binding assay using Bocillin-FL; read-out: P. aeruginosa PBP3 Potency
# T2 construct: made in house
# How it was run: as §1
# T2 sequence (G3XD46 whole entry): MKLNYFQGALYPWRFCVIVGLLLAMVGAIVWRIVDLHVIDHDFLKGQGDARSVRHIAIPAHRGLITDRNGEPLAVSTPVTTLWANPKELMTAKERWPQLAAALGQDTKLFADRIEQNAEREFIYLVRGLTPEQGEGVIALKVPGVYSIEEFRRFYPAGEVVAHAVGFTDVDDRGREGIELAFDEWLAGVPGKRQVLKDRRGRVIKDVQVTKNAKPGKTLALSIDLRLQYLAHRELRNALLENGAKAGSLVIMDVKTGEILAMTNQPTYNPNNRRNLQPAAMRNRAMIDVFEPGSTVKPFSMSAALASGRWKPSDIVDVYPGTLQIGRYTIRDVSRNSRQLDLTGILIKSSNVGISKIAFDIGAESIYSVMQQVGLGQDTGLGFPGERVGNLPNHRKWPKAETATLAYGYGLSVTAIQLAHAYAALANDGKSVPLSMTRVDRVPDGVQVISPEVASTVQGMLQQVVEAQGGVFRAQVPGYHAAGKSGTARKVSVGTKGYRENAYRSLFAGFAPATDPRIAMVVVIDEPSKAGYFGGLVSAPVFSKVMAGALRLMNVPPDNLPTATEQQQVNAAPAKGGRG
# T1 sequence (P0AD68 1-577): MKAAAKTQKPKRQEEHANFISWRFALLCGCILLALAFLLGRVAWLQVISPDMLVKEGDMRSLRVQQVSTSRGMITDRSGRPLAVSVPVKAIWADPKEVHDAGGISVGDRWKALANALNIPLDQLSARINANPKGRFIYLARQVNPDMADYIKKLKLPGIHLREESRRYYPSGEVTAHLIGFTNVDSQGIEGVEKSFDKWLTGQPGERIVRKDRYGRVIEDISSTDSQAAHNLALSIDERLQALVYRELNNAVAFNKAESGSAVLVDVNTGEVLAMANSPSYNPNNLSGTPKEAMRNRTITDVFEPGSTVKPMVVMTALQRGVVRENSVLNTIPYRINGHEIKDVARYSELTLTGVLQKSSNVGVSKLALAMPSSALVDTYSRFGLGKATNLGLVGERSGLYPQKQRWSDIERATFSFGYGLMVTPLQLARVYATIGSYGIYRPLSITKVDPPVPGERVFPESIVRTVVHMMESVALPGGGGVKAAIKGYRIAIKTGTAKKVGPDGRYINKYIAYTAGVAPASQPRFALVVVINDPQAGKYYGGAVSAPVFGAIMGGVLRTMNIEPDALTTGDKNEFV
Compound,MIC (E. coli AG100A) [µg/mL],EC50 [1] [µM],MIC (N. gonorrhoeae WHO L) [µg/mL],MIC (N. gonorrhoeae WHO G) [µg/mL],MIC (N. gonorrhoeae WHO Q) [µg/mL],MIC [2] [µg/mL],MIC (N. gonorrhoeae CDC-0197) [µg/mL],IC50 [3] [µM]
"CC(=O)N1CCC[C@@H]1C(=O)N[C@H](C(=O)N[C@H]1Cc2cccc(C(=O)O)c2OB1O)c1ccc(P(=O)(O)O)cc1 [Example 33, (3R)-3-(2-((R)-1-acetylpyrrolidine-2-carboxamido)-2-(4-phosphonophenyl)acetamido)-2-hydroxy-3,4-dihydro-2H-benzo[e][1,2]oxaborinine-8-carboxylic acid]",> 128,50 to 250,16 to 32,16 to 32,16 to 32,16 to 32,16 to 32,10 to 50
"CCC(=O)NC(C(=O)N[C@H]1Cc2cccc(C(=O)O)c2OB1O)c1ccc(P(=O)(O)O)cc1 (stereo partly drawn) [Example 27, (3R)-2-hydroxy-3-(2-(4-phosphonophenyl)-2-propionamidoacetamido)-3,4-dihydro-2H-benzo[e][1,2]oxaborinine-8-carboxylic acid]",> 128,50 to 250,16 to 32,4 to 8,16 to 32,16 to 32,16 to 32,10 to 50
"CCN1CCN(C(=O)NC(C(=O)N[C@H]2Cc3cccc(C(=O)O)c3OB2O)c2c(F)cc(P(=O)(O)O)cc2F)C(=O)C1=O (stereo partly drawn) [Example 25, (3R)-3-(2-(2,6-difluoro-4-phosphonophenyl)-2-(4-ethyl-2,3-dioxopiperazine-1-carboxamido)acetamido)-2-hydroxy-3,4-dihydro-2H-benzo[e][1,2]oxaborinine-8-carboxylic acid]",32 to 64,< 10,1 to 2,< 1,1 to 2,< 1,< 1,< 10
"CN1CCN(C(=O)NC(C(=O)N[C@H]2Cc3cccc(C(=O)O)c3OB2O)c2ccc(P(=O)(O)O)cc2)C1=O (stereo partly drawn) [Example 41, (3R)-2-hydroxy-3-(2-(3-methyl-2-oxoimidazolidine-1-carboxamido)-2-(4-phosphonophenyl)acetamido)-3,4-dihydro-2H-benzo[e][1,2]oxaborinine-8-carboxylic acid]",8 to 16,< 10,1 to 2,< 1,< 1,< 1,< 1,< 10
"O=C(O)c1cccc2c1OB(O)[C@@H](NC(=O)[C@H](NC(=O)c1cnc3sccn3c1=O)c1ccc(P(=O)(O)O)cc1)C2 (single isomer, unassigned) [Example 195]",> 128,< 10,16 to 32,1 to 2,4 to 8,4 to 8,4 to 8,< 10
"N#Cc1ccnc(C(=O)NC(C(=O)N[C@H]2Cc3cccc(C(=O)O)c3OB2O)c2ccc(P(=O)(O)O)cc2)c1 (stereo partly drawn) [Example 179, (3R)-3-(2-(4-cyanopicolinamido)-2-(4-phosphonophenyl)acetamido)-2-hydroxy-3,4-dihydro-2H-benzo[e][1,2]oxaborinine-8-carboxylic acid]",> 128,50 to 250,16 to 32,16 to 32,16 to 32,16 to 32,16 to 32,< 10
"O=C(O)c1cccc2c1OB(O)[C@@H](NC(=O)C(NC(=O)C(F)(F)F)c1ccc(P(=O)(O)O)cc1)C2 (stereo partly drawn) [Example 172, (3R)-2-hydroxy-3-(2-(4-phosphonophenyl)-2-(2,2,2-trifluoroacetamido)acetamido)-3,4-dihydro-2H-benzo[e][1,2]oxaborinine-8-carboxylic acid]",> 128,> 250,16 to 32,16 to 32,16 to 32,16 to 32,16 to 32,50 to 250
"CS(=O)(=O)N1CCC[C@H]1C(=O)N[C@@H](C(=O)N[C@H]1Cc2cccc(C(=O)O)c2OB1O)c1ccc(P(=O)(O)O)cc1 [Example 44, (R)-2-hydroxy-3-((R)-2-((S)-1-(methylsulfonyl)pyrrolidine-2-carboxamido)-2-(4-phosphonophenyl)acetamido)-3,4-dihydro-2H-benzo[e][1,2]oxaborinine-8-carboxylic acid]",32 to 64,10 to 50,16 to 32,1 to 2,1 to 2,1 to 2,1 to 2,< 10
